In patent US20250115595A1, “INHIBITORS OF HYPOXIA-INDUCIBLE FACTORS” (The Johns Hopkins University, priority 2021, published 2025):

Test system: cytokine mRNAs
Assay: RT-qPCR array of mouse cytokines and chemokines in Hepa1-6 tumors
Assay type: in vivo
Conditions: Hepa1-6 tumors, vs vehicle
Experimental: Total RNA from Hepa1-6 tumors was analyzed using the RT2 Profiler PCR Array of Mouse Cytokines and Chemokines (Qiagen, catalog number 330231 PAMM-150ZA) according to the manufacturer's instructions.

For `Brc1ccc2c(-c3csc(-c4c[nH]c5c(Br)cccc45)n3)c[nH]c2c1` [Compound 32-134D, 4-(6-bromo-1H-indol-3-yl)-2-(7-bromo-1H-indol-3-yl)thiazole], the “Adipoq mRNA Fold Change Test Group/Control Group” value was 0.43, the “Adipoq mRNA Fold Up- or Down-Regulation Test Group/Control Group” value was −2.31 and the “Adipoq mRNA X axis (Log2(fold change))” value was −1.21. The “Bmp2 mRNA Fold Change Test Group/Control Group” value was 0.51, the “Bmp2 mRNA Fold Up- or Down-Regulation Test Group/Control Group” value was −1.95 and the “Bmp2 mRNA X axis (Log2(fold change))” value was −0.96. The “Bmp4 mRNA Fold Change Test Group/Control Group” value was 0.64, the “Bmp4 mRNA Fold Up- or Down-Regulation Test Group/Control Group” value was −1.96 and the “Bmp4 mRNA X axis (Log2(fold change))” value was −0.64. For the same molecule, the “Bmp6 mRNA Fold Change Test Group/Control Group” value was 0.44, the “Bmp6 mRNA Fold Up- or Down-Regulation Test Group/Control Group” value was −2.27 and the “Bmp6 mRNA X axis (Log2(fold change))” value was −1.18. The “Bmp7 mRNA Fold Change Test Group/Control Group” value was 0.70, the “Bmp7 mRNA Fold Up- or Down-Regulation Test Group/Control Group” value was −1.43 and the “Bmp7 mRNA X axis (Log2(fold change))” value was −0.51. For the same molecule, the “Cc15 mRNA Fold Change Test Group/Control Group” value was 0.92, the “Cc15 mRNA Fold Up- or Down-Regulation Test Group/Control Group” value was −1.09 and the “Cc15 mRNA X axis (Log2(fold change))” value was −0.13. For the same molecule, the “Cc120 mRNA Fold Change Test Group/Control Group” value was 0.42, the “Cc120 mRNA Fold Up- or Down-Regulation Test Group/Control Group” value was −2.41 and the “Cc120 mRNA X axis (Log2(fold change))” value was −1.27. The “Ccl1 mRNA Fold Change Test Group/Control Group” value was 0.63, the “Ccl1 mRNA Fold Up- or Down-Regulation Test Group/Control Group” value was −1.58 and the “Ccl1 mRNA X axis (Log2(fold change))” value was −0.66. For the same molecule, the “Ccl2 mRNA Fold Change Test Group/Control Group” value was 1.35, the “Ccl2 mRNA Fold Up- or Down-Regulation Test Group/Control Group” value was 1.35 and the “Ccl2 mRNA X axis (Log2(fold change))” value was 0.44. For the same molecule, the “Ccl3 mRNA Fold Change Test Group/Control Group” value was 1.06, the “Ccl3 mRNA Fold Up- or Down-Regulation Test Group/Control Group” value was 1.06 and the “Ccl3 mRNA X axis (Log2(fold change))” value was 0.09. The “Ccl4 mRNA Fold Change Test Group/Control Group” value was 0.72, the “Ccl4 mRNA Fold Up- or Down-Regulation Test Group/Control Group” value was −1.39 and the “Ccl4 mRNA X axis (Log2(fold change))” value was −0.47. For the same molecule, the “Ccl7 mRNA Fold Change Test Group/Control Group” value was 1.03, the “Ccl7 mRNA Fold Up- or Down-Regulation Test Group/Control Group” value was 1.03 and the “Ccl7 mRNA X axis (Log2(fold change))” value was 0.04. The “Ccl11 mRNA Fold Change Test Group/Control Group” value was 1.03, the “Ccl11 mRNA Fold Up- or Down-Regulation Test Group/Control Group” value was 1.03 and the “Ccl11 mRNA X axis (Log2(fold change))” value was 0.04. For the same molecule, the “Ccl12 mRNA Fold Change Test Group/Control Group” value was 4.11, the “Ccl12 mRNA Fold Up- or Down-Regulation Test Group/Control Group” value was 4.11 and the “Ccl12 mRNA X axis (Log2(fold change))” value was 2.04. The “Ccl17 mRNA Fold Change Test Group/Control Group” value was 0.68, the “Ccl17 mRNA Fold Up- or Down-Regulation Test Group/Control Group” value was −1.47 and the “Ccl17 mRNA X axis (Log2(fold change))” value was −0.56. The “Ccl19 mRNA Fold Change Test Group/Control Group” value was 0.54, the “Ccl19 mRNA Fold Up- or Down-Regulation Test Group/Control Group” value was −1.86 and the “Ccl19 mRNA X axis (Log2(fold change))” value was −0.89. The “Ccl22 mRNA Fold Change Test Group/Control Group” value was 0.31, the “Ccl22 mRNA Fold Up- or Down-Regulation Test Group/Control Group” value was −3.18 and the “Ccl22 mRNA X axis (Log2(fold change))” value was −1.67. The “Ccl24 mRNA Fold Change Test Group/Control Group” value was 1.21, the “Ccl24 mRNA Fold Up- or Down-Regulation Test Group/Control Group” value was 1.21 and the “Ccl24 mRNA X axis (Log2(fold change))” value was 0.27. The “Cd40lg mRNA Fold Change Test Group/Control Group” value was 0.52, the “Cd40lg mRNA Fold Up- or Down-Regulation Test Group/Control Group” value was −1.91 and the “Cd40lg mRNA X axis (Log2(fold change))” value was −0.93. The “Cd70 mRNA Fold Change Test Group/Control Group” value was 0.24, the “Cd70 mRNA Fold Up- or Down-Regulation Test Group/Control Group” value was −4.19 and the “Cd70 mRNA X axis (Log2(fold change))” value was −2.07. The “Cntf mRNA Fold Change Test Group/Control Group” value was 0.38, the “Cntf mRNA Fold Up- or Down-Regulation Test Group/Control Group” value was −2.61 and the “Cntf mRNA X axis (Log2(fold change))” value was −1.39. The “Csf1 mRNA Fold Change Test Group/Control Group” value was 1.02, the “Csf1 mRNA Fold Up- or Down-Regulation Test Group/Control Group” value was 1.02 and the “Csf1 mRNA X axis (Log2(fold change))” value was 0.03. For the same molecule, the “Csf2 mRNA Fold Change Test Group/Control Group” value was 0.38, the “Csf2 mRNA Fold Up- or Down-Regulation Test Group/Control Group” value was −2.64 and the “Csf2 mRNA X axis (Log2(fold change))” value was −1.40. For the same molecule, the “Csf3 mRNA Fold Change Test Group/Control Group” value was 0.50, the “Csf3 mRNA Fold Up- or Down-Regulation Test Group/Control Group” value was −1.99 and the “Csf3 mRNA X axis (Log2(fold change))” value was −0.99. For the same molecule, the “Ctf1 mRNA Fold Change Test Group/Control Group” value was 0.19, the “Ctf1 mRNA Fold Up- or Down-Regulation Test Group/Control Group” value was −5.18 and the “Ctf1 mRNA X axis (Log2(fold change))” value was −2.37. For the same molecule, the “Cx3cl1 mRNA Fold Change Test Group/Control Group” value was 0.53, the “Cx3cl1 mRNA Fold Up- or Down-Regulation Test Group/Control Group” value was −1.89 and the “Cx3cl1 mRNA X axis (Log2(fold change))” value was −0.92. For the same molecule, the “Cxcl1 mRNA Fold Change Test Group/Control Group” value was 0.67, the “Cxcl1 mRNA Fold Up- or Down-Regulation Test Group/Control Group” value was 1.49 and the “Cxcl1 mRNA X axis (Log2(fold change))” value was −0.57. For the same molecule, the “Cxcl3 mRNA Fold Change Test Group/Control Group” value was 0.87, the “Cxcl3 mRNA Fold Up- or Down-Regulation Test Group/Control Group” value was −1.14 and the “Cxcl3 mRNA X axis (Log2(fold change))” value was −0.19. The “Cxcl5 mRNA Fold Change Test Group/Control Group” value was 1.05, the “Cxcl5 mRNA Fold Up- or Down-Regulation Test Group/Control Group” value was 1.05 and the “Cxcl5 mRNA X axis (Log2(fold change))” value was 0.07. For the same molecule, the “Cxcl9 mRNA Fold Change Test Group/Control Group” value was 1.64, the “Cxcl9 mRNA Fold Up- or Down-Regulation Test Group/Control Group” value was 1.64 and the “Cxcl9 mRNA X axis (Log2(fold change))” value was 0.71. For the same molecule, the “Cxcl10 mRNA Fold Change Test Group/Control Group” value was 1.44, the “Cxcl10 mRNA Fold Up- or Down-Regulation Test Group/Control Group” value was 1.44 and the “Cxcl10 mRNA X axis (Log2(fold change))” value was 0.53. For the same molecule, the “Cxcl11 mRNA Fold Change Test Group/Control Group” value was 0.45, the “Cxcl11 mRNA Fold Up- or Down-Regulation Test Group/Control Group” value was −2.24 and the “Cxcl11 mRNA X axis (Log2(fold change))” value was −1.16. For the same molecule, the “Cxcl12 mRNA Fold Change Test Group/Control Group” value was 2.26, the “Cxcl12 mRNA Fold Up- or Down-Regulation Test Group/Control Group” value was 2.26 and the “Cxcl12 mRNA X axis (Log2(fold change))” value was 1.17. The “Cxcl13 mRNA Fold Change Test Group/Control Group” value was 0.39, the “Cxcl13 mRNA Fold Up- or Down-Regulation Test Group/Control Group” value was −2.57 and the “Cxcl13 mRNA X axis (Log2(fold change))” value was −1.36. For the same molecule, the “Cxcl16 mRNA Fold Change Test Group/Control Group” value was 0.61, the “Cxcl16 mRNA Fold Up- or Down-Regulation Test Group/Control Group” value was −1.65 and the “Cxcl16 mRNA X axis (Log2(fold change))” value was −0.72. For the same molecule, the “Fasl mRNA Fold Change Test Group/Control Group” value was 0.59, the “Fasl mRNA Fold Up- or Down-Regulation Test Group/Control Group” value was −1.70 and the “Fasl mRNA X axis (Log2(fold change))” value was −0.77. The “Gpi1 mRNA Fold Change Test Group/Control Group” value was 0.64, the “Gpi1 mRNA Fold Up- or Down-Regulation Test Group/Control Group” value was −1.57 and the “Gpi1 mRNA X axis (Log2(fold change))” value was −0.65. The “Hc mRNA Fold Change Test Group/Control Group” value was 1.77, the “Hc mRNA Fold Up- or Down-Regulation Test Group/Control Group” value was 1.77 and the “Hc mRNA X axis (Log2(fold change))” value was 0.82. The “Lif mRNA Fold Change Test Group/Control Group” value was 0.40, the “Lif mRNA Fold Up- or Down-Regulation Test Group/Control Group” value was −2.48 and the “Lif mRNA X axis (Log2(fold change))” value was −1.31. The “Lta mRNA Fold Change Test Group/Control Group” value was 0.34, the “Lta mRNA Fold Up- or Down-Regulation Test Group/Control Group” value was −2.96 and the “Lta mRNA X axis (Log2(fold change))” value was −1.57. The “Ltb mRNA Fold Change Test Group/Control Group” value was 0.63, the “Ltb mRNA Fold Up- or Down-Regulation Test Group/Control Group” value was −1.58 and the “Ltb mRNA X axis (Log2(fold change))” value was −0.66. For the same molecule, the “Mif mRNA Fold Change Test Group/Control Group” value was 1.12, the “Mif mRNA Fold Up- or Down-Regulation Test Group/Control Group” value was 1.12 and the “Mif mRNA X axis (Log2(fold change))” value was 0.17. The “Mstn mRNA Fold Change Test Group/Control Group” value was 0.21.
